Test results published in ChEMBL document CHEMBL3507680, “University of Dundee, Gates Library screen for HepG2 cell viability”.

Assay: Human HepG2 cell viability assay in 384 well format
Assay type: toxicity, cell-based
Set-up: dose 125 nL, time 70.5 hour; cytotoxicity at 70.5 h: concentration not given beside the values
Conditions: HepG2 cells, read-out: Inhibition

SMILES | cytotoxicity at 70.5 h [%]
CN(C)c1ncncc1NC(=O)Cc1c[nH]c2ccc(F)cc12 | -2.95
COc1ncnc(N(C)C)c1NC(=O)Cc1cc(F)ccc1F | -5.92
CCc1nnc2ccc(NCC3(N4CCCCC4)CCOCC3)nn12 | -7.09
CC1C(=O)Nc2cccnc2N1S(=O)(=O)c1ccc(C#N)c(Cl)c1 (stereo unspecified) | -6.2
CCN(Cc1ccoc1)C(=O)c1ccc(C)c(S(N)(=O)=O)c1 | -10.2
Cc1cc(N)nc(SC2CCCN(Cc3ccccc3)C2=O)n1 (stereo unspecified) | -9.67
NC(=O)C1CCN(C(=O)c2ccccc2OCc2ccccc2Cl)CC1 | 12.3
O=S(=O)(N1CCCCCC1)N1CCc2sccc2C1 | -5.4
O=S(=O)(N1CCCCCC1)N1CCN(Cc2ccc(F)cc2Br)CC1 | -4.85
Cc1cc(C(=O)NCCN2CCCc3ccccc32)[nH]n1 | 22.8
CN(C)c1nc(N)nc(CSCCC(=O)Nc2ccc(F)cc2)n1 | -7.07
Cc1ccc(S(=O)(=O)NCc2cnn(C)c2)c(F)c1 | -3.12
Cc1nn(CC(C)C)c(N(C)C)c1CNCCC(=O)NC(C)C | 23
Cn1cc(NC(=O)CCCc2cccs2)c(=O)n(C)c1=O | 5.9
Cc1ncc(Cl)c(C(=O)N2CC(=O)N(C)c3ccccc32)n1 | -9.43
CNS(=O)(=O)CC(=O)N(Cc1ccsc1)c1ccccc1 | -8.25
COCCOCC(=O)NC(C#N)c1cc(Cl)cc(Cl)c1 (stereo unspecified) | 19.4
Cn1ccnc1-c1noc(NCc2ccc3c(c2)OCCO3)n1 | 8.69
CN(C)c1nccc(N(C)Cc2nc3ccccc3n2C)n1 | 10.9
N#Cc1nccnc1N1CCC(Cc2ccccc2)C1 (stereo unspecified) | -3.44
Cc1nc(C2CCCN2Cc2cc(Cl)c3c(c2)OCCCO3)no1 (stereo unspecified) | -7.15
O=C(C1CCCN(Cc2cccc(F)c2)C1)N1CCc2sccc2C1 (stereo unspecified) | 0.518

SMILES | cytotoxicity at 70.5 h [%]
N#Cc1nccnc1N1CCC(COCc2ccccc2)C1 (stereo unspecified) | -4.27
Cc1ccc(C2CN(Cc3cnc(-c4cccnc4)s3)CCO2)o1 (stereo unspecified) | 7.31
Cc1nc(CN(C)C(=O)NC(C)c2ccc3c(c2)OCCO3)cs1 (stereo unspecified) | 36.4
Cc1cc(F)ccc1N1CCCC(NC2CCOCC2)C1=O (stereo unspecified) | 31.7
COC(=O)CN(C(=O)c1ccc(-n2ccnc2)cc1)C1CCCC1 | 27.9
CC(C)CC(NC(=O)c1ccn(C)c(=O)c1)c1ccccc1 (stereo unspecified) | 33.2
Cc1nc(CNC(=O)NC(C)c2ccc3c(c2)OCCO3)cs1 (stereo unspecified) | 53.9
Cc1nc(CNC(=O)NC(C)c2ccc3c(c2)OCCCO3)cs1 (stereo unspecified) | -0.884
CC(C)CC(NC(=O)c1ccn(C)c(=O)c1)c1cccs1 (stereo unspecified) | 33.9
Cn1ccc(C(=O)N2CCN(Cc3ccccc3F)CC2)cc1=O | -0.663
CC(C)CNC(=O)CNC(=O)Nc1cccc(Cl)c1-n1cccn1 | 1.42
N#CCCN(CC1CC1)Cn1cc(Cl)cn1 | 34.6
CN(C)C(=O)CCNC(=O)Nc1cccc(Cl)c1-n1cccn1 | 1.32
CC(C)CC(CC(C)C)NC(=O)c1ccn(C)c(=O)c1 | 1.9
O=C(NCCC1CCN(CC(F)(F)F)CC1)C1CCOC1 (stereo unspecified) | 3.01
O=C(Nc1cccn(Cc2ccc(F)cc2)c1=O)c1cnc[nH]1 | -3.1
CC(=O)NS(=O)(=O)c1ccc(F)cc1C(F)(F)F | 33.1
CS(=O)(=O)c1ccccc1NCc1ccc(Cn2ccnc2)cc1 | -0.289
COc1cccc(S(=O)(=O)Cc2noc(CC(C)C)n2)c1 | -4.78
CN(C)C(CNCc1nc(-c2ccsc2)no1)c1cccc(F)c1 (stereo unspecified) | -10.2
COc1cccc(C2=CCN(CCN3CCCC3=O)CC2)c1 | -7.88
Cc1oc(-c2ccsc2)nc1CNC(C)Cn1cccn1 (stereo unspecified) | 11.6

SMILES | cytotoxicity at 70.5 h [%]
CN1CC(C(=O)NCc2cccnc2OCC(F)(F)F)CC1=O (stereo unspecified) | -2.61
CN(CCS(=O)(=O)c1cc(Cl)ccc1Cl)CC(N)=O | -0.37
CCOC(=O)C1CCN(C(=O)Cc2c(C)nc(C)[nH]c2=O)CC1 | 12.3
CC(C)N(CC(N)=O)Cc1cccc(Br)c1 | 1.5
Cc1nc(-c2ccc(Cl)s2)sc1C(=O)N(C)CC(N)=O | 11.9
CC(C)N(CC(N)=O)Cc1cccc(C(F)(F)F)c1 | -1.84
Cc1nc(C)c(CC(=O)N2CCN(CC(C)C)CC2)c(=O)[nH]1 | 2.2
CCOC(=O)N1CCN(C(=O)Cc2c(C)nc(C)[nH]c2=O)CC1 | 13.6
CCc1ccc(C(C)NC(=O)c2ccc(CS(C)(=O)=O)o2)cc1 (stereo unspecified) | -4.79
Cc1cccc(C)c1NCc1noc(C2CC2)n1 | 0.946
c1ccc2c(NCC3(N4CCOCC4)CCSC3)ncnc2c1 (stereo unspecified) | 2.49
Cc1nc(S(=O)(=O)CCn2cccn2)n(C2CCCC2)c1C | 10.5
Cc1nc(S(=O)(=O)CCn2cccn2)n(CC2CCCO2)c1C (stereo unspecified) | -2.87
CCCN(C)CC1CCN(c2ncc(Br)cn2)C1 (stereo unspecified) | 2.13
CC(C1CC1)N(CC(=O)NC(=O)NC1CC1)C1CC1 (stereo unspecified) | -3.17
Cc1oc(-c2ccsc2)nc1CNCCn1cccn1 | -5.13
Cc1ncsc1CNC(=O)N(Cc1ccccc1)CC(C)(C)O | -3.17
Cc1cccc(C(C)CNC(=O)N2CCOCC3(CCOCC3)C2)c1 (stereo unspecified) | -4.47
COc1cc(I)c(Cl)cc1C(=O)N(C)C | -20.5
CCOc1cc(CNC(=O)c2cnn(CC)c2C(F)(F)F)ccn1 | -12.6
CCOc1ccccc1CNC(=O)c1cnn(CC)c1C(F)(F)F | 17.5
CNC(=O)CN(C)C(=O)c1cc(Cl)c(I)cc1OC | -18.4

SMILES | cytotoxicity at 70.5 h [%]
Cc1ccc(C)n1-c1c(C(=O)NCC(C)Cn2cccn2)cnn1C (stereo unspecified) | -21.4
CN(Cc1nnc(C2CC2)n1C)S(=O)(=O)Cc1ccccc1F | -20.7
CN(Cc1nnc(C2CC2)n1C)S(=O)(=O)c1ccc(F)c(C#N)c1 | -23.4
CN(Cc1nnc(-c2ccco2)o1)C(C(N)=O)c1cccc(F)c1 (stereo unspecified) | 0.238
Cn1nnnc1SCC1Cc2ccccc2O1 (stereo unspecified) | 26.1
COCCCn1ccc(NS(=O)(=O)c2cc(C)c(F)cc2F)n1 | -15.7
Cc1cnccc1CCNC(=O)Nc1cnc(N(C)C)nc1 | 25.9
COc1ccccc1CC(=O)NC1CCCc2cn[nH]c21 (stereo unspecified) | -0.577
Cc1ccc(CCCC(=O)N2CCN(C3CCCN(C)C3)CC2)s1 (stereo unspecified) | -2.97
CC(=O)c1c(F)cccc1NCC(O)C1CC1 (stereo unspecified) | -19.1
CN(Cc1nnc(C2CC2)n1C)S(=O)(=O)c1ccccc1C#N | -15.5
Cc1cnc(CN(Cc2cccc(O)c2)CC2CC2)cn1 | -6.41
Cc1cnc(CN(Cc2ccccc2)CC2CCOCC2)cn1 | -3.35
CC(=O)c1c(F)cccc1NCC(O)c1ccc(F)c(F)c1 (stereo unspecified) | -12.6
CCC1CN(C(=O)COc2ccc(NC(C)=O)cc2)CCO1 (stereo unspecified) | 13.7
CN1CCC(CNC(=O)c2ccc(O)nc2)c2ccccc21 (stereo unspecified) | 1.07
CC(C)CCC(=O)Nc1ncn(CC(=O)N2CCCCCC2)n1 | -2.61
NC(CC1CCCCC1)c1ccccc1 (stereo unspecified) | 5.79
CC(C)N(CC(=O)O)Cc1cccc(Br)c1 | 2.77
O=C(O)CN1CCC(C(F)(F)F)CC1 | -2.76
